In US6069172A, “(R)-2-(3-benzoylphenyl) propionic acid salts and pharmaceutical preparations containing them” (priority 1998, dated 2000):

What was measured:
[1] = system: chemotactic activity induced by zymosan; conditions: healthy volunteers and patients; cited from earlier work
PMN leucocyte = conditions: 200 mg for 10 days; cited from earlier work
[2] = system: carrageenin-induced pleural exudate; PMN cell migration; conditions: cited from earlier work
neutrophil = conditions: Ca^++ ionophore and FLMP; cited from earlier work
pain perception = conditions: men; compared with (S) enantiomers; cited from earlier work
[3] = rats; in words; cited from earlier work
gastrolesive action = conditions: in vivo
[4] = system: croton oil-induced ear oedema; conditions: compared with racemate and (S) enantiomer; mice; cited from earlier work
[5] = system: carrageenin-induced oedema; conditions: compared with racemate and (S) enantiomer; rats; cited from earlier work
platelet aggregation = assay: inhibitory action on platelet aggregation
TXB2 synthesis = TXB2 synthesis inhibition in human blood; type: cell-based; conditions: index of platelet antiaggregating properties
[6] = system: ultra-violet radiation-induced epidermal erythema; conditions: topic; guinea pigs; cited from earlier work
T-cell = conditions: stimulated by these agonists; cited from earlier work
PMN leukocytes = conditions: cited from earlier work

Molecule: CC(C(=O)O)c1cccc(C(=O)c2ccccc2)c1 (racemic) [ketoprofen]
- chemotactic activity induced by zymosan [1]: inhibited
- PMN leucocyte fagocytosis (PMN leucocyte): reduction
- bactericidal function of PMN (PMN leucocyte): not affected
- migration of cells into the pleural cavity, later study ([2]; later demonstration against the earlier one): exatly the opposite
- migration of cells into the pleural cavity ([2]; oral, PMN cells vs monocytes, thought in 1975): inhibit the migration of PMN cells, but not that of monocytes
- carrageenin-induced formation of pleural exudate ([2]; oral): inhibited
- inhibition of neutrophil activation / blockade of Ca^++ ion entry (neutrophil): completely inactive

Molecule: C[C@@H](C(=O)O)c1cccc(C(=O)c2ccccc2)c1 [(R)-ketoprofen, (R)-2-(3-benzoylphenyl)propionic acid]
- inhibition of pain perception (pain perception): efficacy at least similar to that of the (S) enantiomers
- conversion of (R) into (S) enantiomer [3]: completely converted
- gastrolesive action (gastrolesive action): substantially devoid
- in vivo antiinflammatory effectiveness, croton oil-induced ear oedema [4]: significantly lower than those of the racemate and of the (S) enantiomer
- inhibition of COX-2 (COX-2): do not inhibit
- inhibition of COX-1 (COX-1): do not inhibit
- in vivo antiinflammatory effectiveness, carrageenin-induced oedema [5]: significantly lower than those of the racemate and of the (S) enantiomer
- inhibitory action on platelet aggregation (platelet aggregation): substantially devoid
- IC50 (TXB2 synthesis): 9.75 ± 0.75 mM
- Protection, UV radiation-induced epidermal erythema [6]: 53.1±4.6%

Molecule: 4-[3-(4-Fluorophenyl)]-2-[[4-(N-3-(2-quinolinmethoxy) phenyl)]amino]phenylpropylbenzoic acid [ETH-615]
- T-cell migration (T-cell): no effects
- chemotaxis of PMN leukocytes induced by FLMP (PMN leukocytes; FLMP): only slightly inhibited
- chemotaxis of PMN leukocytes induced by IL-8 or LTB4 (PMN leukocytes; IL-8 or LTB4): clearly inhibited
